Assay results taken from US4692438A, “Pyridazo-diazepines, diazocines, and -triazepines having anti-hypertensive activity” (Hoffmann-La Roche Inc., priority 1984, dated 1987).

Biological target: T1, angiotensin converting enzyme (Oryctolagus cuniculus, UniProt P12822)
T1 sequence (P12822 34-1310): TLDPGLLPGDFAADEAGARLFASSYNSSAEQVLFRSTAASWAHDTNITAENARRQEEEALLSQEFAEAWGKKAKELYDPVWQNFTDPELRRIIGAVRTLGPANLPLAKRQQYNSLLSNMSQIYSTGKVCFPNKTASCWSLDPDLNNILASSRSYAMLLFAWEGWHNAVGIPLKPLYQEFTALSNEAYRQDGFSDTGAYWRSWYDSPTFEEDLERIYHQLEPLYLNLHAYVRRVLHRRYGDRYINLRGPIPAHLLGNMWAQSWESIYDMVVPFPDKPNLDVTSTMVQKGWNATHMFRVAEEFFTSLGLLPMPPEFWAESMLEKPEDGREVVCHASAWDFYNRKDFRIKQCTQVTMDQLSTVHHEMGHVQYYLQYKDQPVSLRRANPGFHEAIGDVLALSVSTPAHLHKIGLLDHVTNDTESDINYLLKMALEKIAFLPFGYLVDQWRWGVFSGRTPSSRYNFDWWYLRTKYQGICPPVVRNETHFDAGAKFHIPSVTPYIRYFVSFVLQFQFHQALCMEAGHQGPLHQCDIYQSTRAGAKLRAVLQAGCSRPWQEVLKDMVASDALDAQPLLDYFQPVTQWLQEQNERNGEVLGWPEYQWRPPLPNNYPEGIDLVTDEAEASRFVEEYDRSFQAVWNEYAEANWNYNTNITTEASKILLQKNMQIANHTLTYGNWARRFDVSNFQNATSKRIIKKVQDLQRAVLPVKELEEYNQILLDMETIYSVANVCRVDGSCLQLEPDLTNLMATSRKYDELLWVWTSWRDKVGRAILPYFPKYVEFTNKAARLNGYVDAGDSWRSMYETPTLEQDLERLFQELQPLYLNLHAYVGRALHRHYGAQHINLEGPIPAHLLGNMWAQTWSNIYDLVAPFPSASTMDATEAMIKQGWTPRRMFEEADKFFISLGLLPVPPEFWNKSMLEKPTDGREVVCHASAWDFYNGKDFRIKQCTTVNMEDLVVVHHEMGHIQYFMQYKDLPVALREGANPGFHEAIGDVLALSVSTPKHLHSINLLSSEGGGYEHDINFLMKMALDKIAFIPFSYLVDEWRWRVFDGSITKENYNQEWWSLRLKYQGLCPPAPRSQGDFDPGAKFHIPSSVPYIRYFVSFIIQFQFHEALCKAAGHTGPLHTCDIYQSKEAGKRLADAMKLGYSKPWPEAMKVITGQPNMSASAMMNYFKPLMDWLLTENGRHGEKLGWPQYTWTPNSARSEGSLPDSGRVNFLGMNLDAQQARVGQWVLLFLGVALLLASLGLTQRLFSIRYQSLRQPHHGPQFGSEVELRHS
Assay: in vitro inhibition of angiotensin converting enzyme (cleavage of hippuryl-histidyl-leucine)
Format: biochemical
Settings: substrate hippuryl-histidyl-leucine 2 mM; potassium phosphate buffer pH 8.3, 100 mM; NaCl 300 mM; 24 minutes at 37° C.
Protocol: The activity of the compounds of formula I and the aforementioned salts in inhibiting angiotensin converting enzyme in vitro can be determined by the following test.
The method used is based on the method of Cushman and Cheung (Biochem. Pharmacol., 20. 1637-1648) incorporating the modifications introduced by Hayakari et al (Anal. Biochem., 84. 361-369). The substrate, which is hippuryl-histidyl-leucine, 2 mM, is incubated with angiotensin converting enzyme in the presence or absence of various concentrations of test substance in potassium phosphate buffer (pH 8.3; 100 mM) containing sodium chloride (300 mM) for 24 minutes at 37° C. (total value 500 μl). If the test substance is an ester, it is appropriate to cleave it by means of hog liver esterase before carrying out the test. The reaction is terminated by the addition of 3 ml of potassium phosphate buffer (pH 8.3; 200 mM) at 0° C. 2,4,6-Trichloro-s-triazine (3%) in 1.5 ml of dioxane and the mixture is agitated until the yellow chromophore has developed fully. The samples are then centrifuged to remove any precipitate which has formed. The yellow chromophore formed by the reaction of the 2,4,6-trichloro-s-triazine with free hippuric acid is measured spectrophoto metrically at 382 nm. The IC50 values are defined as the concentration of test substance which reduces by 50% the cleavage of hippuryl-histidyl-leucine by antiotensin converting enzyme under the aforementioned conditions.
The results obtained in the foregoing test using representative compounds of formula I as the test substance are compiled in the following Table: […]

IC50 [nM] | Structure (SMILES)
2.6 | O=C(O)[C@@H]1CCCN2CCC[C@H](CS)C(=O)N12 [Compound B, octahydro-9(S)-mercaptomethyl-10-oxo-pyridazo[1,2-a][1,2]diazepine-1(S)-carboxylic acid]
4 | O=C(O)[C@@H]1CCCN2C(=O)CC[C@H](CS)C(=O)N12 [Compound A, octahydro-9(S)-mercaptomethyl-6,10-dioxo-6H-pyridazo[1,2-a][1,2]diazepine-1(S)-carboxylic acid]
19 | O=C(O)[C@@H]1CCCN2C(=O)CCCC(CS)C(=O)N12 (stereo partly drawn) [Compound C, decahydro-10(R,S)-mercaptomethyl-6,11-dioxo-6H-pyridazo[1,2-a][1,2]diazocine-1(S)-carboxylic acid]
51 | O=C(O)[C@@H]1CCCN2C(=O)CN(Cc3ccccc3)C(CS)C(=O)N12 (single isomer, unassigned) [Compound D]
